Read-outs that look alike come from different tables or passages of the source.
Experiments:
A549 cells = assay: A549 Cell Proliferation Assay (MTT); assay type: cell-based; conditions: Homo sapiens
[1] = test system: caspase 3,7 activity in A431 cells; assay: cells
Source text: As described below, the capsase 3,7 assay uses the Promega Caspase-Glo 3/7 assay kit (cat no. G8092).
The Caspase-Glo® 3/7 Assay is a luminescent assay that measures caspase-3 and −7 activities in purified enzyme preparations or cultures of adherent or suspension cells. The assay provides a proluminescent caspase-3/7 substrate, which contains the tetrapeptide sequence, DEVD. This substrate is cleaved to release aminoluciferin, a substrate of luciferase used in the production of light. The Caspase-Glo® 3/7 Reagent has been optimized for caspase activity, luciferase activity and cell lysis. The addition of the single Caspase-Glo® 3/7 Reagent in an “add-mix-measure” format results in cell lysis, followed by caspase cleavage of the substrate and generation of a “glow-type” luminescent signal. The Caspase-Glo® 3/7 Assay is designed for use with multiwell plate formats, making it ideal for automated high-throughput screening of caspase activity or apoptosis.
Staurosporine was used as a positive control.
For the capsase 3,7 assay, cells were incubated for 5.5 hrs at 37° C., 5% CO2. The plate was removed from the incubator and equilibrated to room temperature. After 30 min, 25 μl Caspase 3/7 detection reagent (Promega Caspase-Glo 3/7 assay kit, cat no. G8092) was added to each well. The plate was covered with tin foil and shaken on a plate shaker at speed 4 for 3 min. The plate was then incubated for an additional 60 min at room temperature. Luminescence was detected using the PolarStar plate reader.
All statistical analyses were done using GraphPad Prism.
The assay was stopped after 6 hrs and the presence of caspase was measured using the Promega Caspase-Glo® 3/7 Assay.

[2] = test system: epithelial carcinoma A431 cell line; assay: MTT Cell Proliferation Assay, A431 cell line; assay type: cell-based; conditions: for IC50: Homo sapiens
Procedure, shortened: (§1)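 Cells plated overnight, then exposed 3 days at 37 °C, 5% CO2 to compound in growth medium with 0.5% FBS and 0.5% DMSO final (0.5% DMSO as control).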

MDBK line = assay: MTT Cell Proliferation Assay, MDBK line; assay type: cell-based, bovine; conditions: Bos taurus, MDBK
Procedure, shortened: as §1

[3] = A549, 72 h, read-out: IC50 Value (μM) A549 Cells
[4] = Homo sapiens, A-431, read-out: Total Apoptosis (increase in caspase 3,7 activity as percentage of the maximal response)

IC50 ([2]; A-431, 10 point follow-up, first value of pair, read-out: MTT (10 Point follow-up) A431) | IC50 ([2]; A-431, 72 h, 72 h, first value of A431/MDBK pair, read-out: MTT-72 h A431) | SMILES | IC50 (A549 cells; [3]) | IC50 (A549 cells; A549, read-out: IC50, cell proliferation in A549 or H1975 cells) | Emax at 8 µM [1, 4] | Emax at 16 µM [1, 4] | effect on Tarceva to increase caspase 3,7 activity ([1]; Tarceva plus compound, A431 cells, 6 hrs) | Ability to Synergize with Tarceva ([1]; caspase 3,7 activity, A431 cells) | MTT (10 Point follow-up) ratio ([2]; 10 point follow-up, value in brackets, numerically MDBK over A431) | MTT-72 h A431/MDBK (ratio) ([2]; 72 h, value in brackets, numerically MDBK value over A431 value) | IC50 (MDBK line; 10 point follow-up, second value of pair, read-out: MTT (10 Point follow-up) MDBK) | IC50 (MDBK line; 72 h, second value of A431/MDBK pair, read-out: MTT-72 h MDBK)
– | – | Cc1cc(Cl)cnc1NC(c1ccc(Cl)cc1Cl)c1ccc2cccnc2c1O (stereo not shown) [AD4-13130] | 0.12 µM | ≤ 0.1 µM | – | – | – | – | – | – | – | –
– | – | Cc1c(Cl)cnc(NC(c2cccc(Cl)c2Cl)c2ccc3cccnc3c2O)c1F (stereo not shown) [AD4-13192] | 0.15 µM | – | 29% | 32% | synergistic (greater-than-additive) effect | +++ (0.3-0.7 Synergism) | – | – | – | –
279 nM | 290 nM | Oc1c(C(Nc2ccccn2)c2ccc(C(F)(F)F)cc2)ccc2cccnc12 (stereo not shown) [compound 10460] | – | – | – | – | – | – | 1.34 | 1.84 | 375 nM | 530 nM

— patent US9073858B2, “Methods of targeted drug development” (priority 2010, dated 2015)
